Test results taken from the supplement of paper PMC10599287.

Key:
GDC-0623 = compound: O=C(NOCCO)c1ccc2cncn2c1Nc1ccc(I)cc1F [GDC-0623]; assay: absolute IC70 (antiproliferative, propidium iodide); higher = less potent; conditions: exposure time: 4 days
Procedure: (§1)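 Modified propidium iodide survival/proliferation assay in 294 human tumor cell lines (2D monolayer for solid tumors, suspension for hematologic lines) after 4 days of continuous exposure to 10 concentrations in half-log steps from 0.001 to 30 µM. Absolute IC70 was fitted by four-parameter nonlinear regression of T/C × 100 (%) values; 30 µM is the top dose.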

[1] = compound: CCNC(=O)C#Cc1ccc2c(C(=Nc3ccc(CN(C)C)cc3)c3ccccc3)c(O)[nH]c2c1; assay: as above; conditions: exposure time: 4 days
Procedure: as §1

Test System | absolute IC70 (GDC-0623) | absolute IC70 [1]
SW948 | > 30000 nM | 3000 nM
CCRF-CEM | > 30000 nM | 13 nM
Calu-1 | > 30000 nM | 3440 nM
PANC-1 | > 30000 nM | 5080 nM
PXF_698 | > 30000 nM | 301 nM
MDST8 | 6.01 nM | 55.5 nM
LIXFC_575 | 3010 nM | 654 nM
SK-BR-3 | > 30000 nM | 4070 nM
L-363 | > 30000 nM | 692 nM
A2780 | 24400 nM | 546 nM
SK-GT-2 | > 30000 nM | 2800 nM
CXF_260 | 194 nM | 324 nM
PA-TU-8902 | > 30000 nM | 913 nM
VCAP | > 30000 nM | 5020 nM
MOLT-4 | > 30000 nM | 4 nM
NCI-H460 | > 30000 nM | 11 nM
LXFA_923 | > 30000 nM | 24400 nM
SF268 | > 30000 nM | 1330 nM
RXF_1220 | > 30000 nM | 4720 nM
HCC2998 | 257 nM | 896 nM
OPM-2 | > 30000 nM | 336 nM
GXA_3023 | 1440 nM | 69 nM
NCI-H522 | 30000 nM | 102 nM
